Assay results: paper PMC12406203 (Journal of Medicinal Chemistry, 2025)

Legend:
Experiment in all cases: KINOMEscan
Type in all cases: binding
MAPKAPK2 = target: T1, MAPKAPK2 (Homo sapiens, UniProt P49137)
T1 construct: purchased Eurofins DiscoverX, LLC; host or cells: E. coli (BL21-derived, T7 phage) or HEK-293

AXL = target: T2, AXL (Homo sapiens, UniProt P30530)
T2 construct: purchased Eurofins DiscoverX, LLC; host or cells: E. coli BL21-derived (T7 phage) or HEK-293
T2 sequence (P30530 26-894): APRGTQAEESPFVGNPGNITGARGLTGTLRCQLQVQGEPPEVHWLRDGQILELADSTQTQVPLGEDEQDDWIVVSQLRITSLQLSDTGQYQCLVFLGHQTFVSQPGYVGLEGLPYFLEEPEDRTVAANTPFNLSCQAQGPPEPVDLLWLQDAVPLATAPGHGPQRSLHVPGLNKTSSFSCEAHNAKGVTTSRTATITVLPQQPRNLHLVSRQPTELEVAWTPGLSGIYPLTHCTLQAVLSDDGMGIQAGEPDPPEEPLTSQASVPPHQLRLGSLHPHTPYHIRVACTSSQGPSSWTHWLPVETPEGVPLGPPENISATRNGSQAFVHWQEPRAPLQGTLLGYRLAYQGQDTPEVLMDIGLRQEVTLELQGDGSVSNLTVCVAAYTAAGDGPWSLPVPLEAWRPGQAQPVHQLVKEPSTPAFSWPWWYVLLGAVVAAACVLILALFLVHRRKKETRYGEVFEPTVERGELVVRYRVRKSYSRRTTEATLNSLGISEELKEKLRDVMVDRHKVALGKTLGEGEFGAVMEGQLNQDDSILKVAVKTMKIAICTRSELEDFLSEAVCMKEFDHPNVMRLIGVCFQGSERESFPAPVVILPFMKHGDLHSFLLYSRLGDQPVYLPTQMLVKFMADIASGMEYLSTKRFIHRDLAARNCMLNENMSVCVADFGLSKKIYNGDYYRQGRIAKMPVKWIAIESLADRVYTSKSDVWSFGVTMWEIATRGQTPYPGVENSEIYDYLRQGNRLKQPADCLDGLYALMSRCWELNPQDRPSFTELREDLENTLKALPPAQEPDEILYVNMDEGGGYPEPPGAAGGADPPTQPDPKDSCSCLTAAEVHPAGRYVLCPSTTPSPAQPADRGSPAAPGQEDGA

CSNK1D = target: T3, CSNK1D (Homo sapiens, UniProt P48730)
T3 construct: purchased Eurofins DiscoverX, LLC; host or cells: E. coli (T7 phage) or HEK-293

TRKA = target: T4, TRKA (Homo sapiens, UniProt P04629)
T4 construct: purchased Eurofins DiscoverX, LLC; host or cells: E. coli BL21-derived host (T7 phage) or HEK-293

[1] = target: T5, RSK2 (Kin.Dom.1-N-terminal) (Homo sapiens, UniProt P51812)
T5 construct: RSK2 (Kin.Dom.1-; purchased Eurofins DiscoverX, LLC; host or cells: E. coli BL21-derived host (T7 phage) or HEK-293

IKKα = target: T6, IKKα (Homo sapiens, UniProt O15111)
T6 construct: purchased Eurofins DiscoverX, LLC; host or cells: E. coli (T7 phage) or HEK-293
T6 sequence (O15111 1-745): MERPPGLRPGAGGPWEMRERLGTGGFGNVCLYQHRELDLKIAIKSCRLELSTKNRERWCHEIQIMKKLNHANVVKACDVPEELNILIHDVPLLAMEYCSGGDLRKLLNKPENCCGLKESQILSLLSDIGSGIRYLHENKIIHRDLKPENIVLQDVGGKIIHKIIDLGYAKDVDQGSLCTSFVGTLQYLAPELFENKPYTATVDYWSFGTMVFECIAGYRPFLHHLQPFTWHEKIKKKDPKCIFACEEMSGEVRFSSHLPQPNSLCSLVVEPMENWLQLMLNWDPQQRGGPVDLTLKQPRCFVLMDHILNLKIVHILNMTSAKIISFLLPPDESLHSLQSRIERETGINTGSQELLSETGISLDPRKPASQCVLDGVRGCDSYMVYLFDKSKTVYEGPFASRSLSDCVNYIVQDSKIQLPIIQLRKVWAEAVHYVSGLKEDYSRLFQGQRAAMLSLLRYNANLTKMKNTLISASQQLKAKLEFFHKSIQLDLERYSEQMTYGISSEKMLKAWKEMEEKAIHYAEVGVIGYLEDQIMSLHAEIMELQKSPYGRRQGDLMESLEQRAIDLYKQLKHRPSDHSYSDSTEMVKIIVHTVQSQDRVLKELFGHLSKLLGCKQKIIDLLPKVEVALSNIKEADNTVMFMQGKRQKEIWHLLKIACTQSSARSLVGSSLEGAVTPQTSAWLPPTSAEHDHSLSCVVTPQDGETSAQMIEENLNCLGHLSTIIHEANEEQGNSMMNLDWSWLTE

SRPK3 = target: T7, SRPK3 (Homo sapiens, UniProt Q9UPE1)
T7 construct: purchased Eurofins DiscoverX, LLC; host or cells: E. coli BL21-derived host (T7 phage) or HEK-293

BRAF(V600E) = target: T8, BRAF(V600E) (Homo sapiens, UniProt P15056, V600E)
T8 construct: purchased Eurofins DiscoverX, LLC; host or cells: E. coli BL21-derived (T7 phage) or HEK-293

SRC = target: T9, SRC (Homo sapiens, UniProt P12931)
T9 construct: purchased Eurofins DiscoverX, LLC; host or cells: E. coli BL21-derived host (T7 phage) or HEK-293
T9 sequence (P12931 whole entry): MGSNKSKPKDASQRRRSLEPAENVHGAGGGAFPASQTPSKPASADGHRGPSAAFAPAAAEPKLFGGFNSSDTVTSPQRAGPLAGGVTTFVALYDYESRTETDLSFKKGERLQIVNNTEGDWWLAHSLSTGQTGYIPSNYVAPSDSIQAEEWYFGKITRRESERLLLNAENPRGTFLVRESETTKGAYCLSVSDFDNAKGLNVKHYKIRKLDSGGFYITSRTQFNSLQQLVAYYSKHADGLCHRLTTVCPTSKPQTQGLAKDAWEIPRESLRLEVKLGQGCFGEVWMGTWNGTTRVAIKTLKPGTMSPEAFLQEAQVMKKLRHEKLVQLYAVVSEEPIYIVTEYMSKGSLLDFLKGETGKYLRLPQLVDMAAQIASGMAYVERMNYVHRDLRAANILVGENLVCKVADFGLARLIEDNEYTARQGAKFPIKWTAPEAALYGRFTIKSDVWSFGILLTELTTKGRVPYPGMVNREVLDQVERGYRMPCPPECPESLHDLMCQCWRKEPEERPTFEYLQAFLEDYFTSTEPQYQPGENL

T7 sequence (Q9UPE1 whole entry): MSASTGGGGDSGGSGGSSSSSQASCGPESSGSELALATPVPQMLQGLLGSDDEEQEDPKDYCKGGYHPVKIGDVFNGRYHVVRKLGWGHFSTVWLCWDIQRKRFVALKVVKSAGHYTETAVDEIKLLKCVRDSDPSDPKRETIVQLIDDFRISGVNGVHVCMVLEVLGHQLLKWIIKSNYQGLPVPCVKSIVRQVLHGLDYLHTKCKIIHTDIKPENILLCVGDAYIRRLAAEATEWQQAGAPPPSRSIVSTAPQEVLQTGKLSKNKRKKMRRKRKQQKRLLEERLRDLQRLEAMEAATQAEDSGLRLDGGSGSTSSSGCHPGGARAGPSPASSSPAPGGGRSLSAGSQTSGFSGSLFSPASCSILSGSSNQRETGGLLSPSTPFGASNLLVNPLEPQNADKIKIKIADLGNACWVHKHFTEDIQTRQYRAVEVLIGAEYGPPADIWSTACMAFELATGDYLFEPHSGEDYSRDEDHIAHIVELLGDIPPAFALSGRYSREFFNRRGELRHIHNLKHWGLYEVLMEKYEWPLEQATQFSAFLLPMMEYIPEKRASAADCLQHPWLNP
T8 sequence (P15056 whole entry V600E): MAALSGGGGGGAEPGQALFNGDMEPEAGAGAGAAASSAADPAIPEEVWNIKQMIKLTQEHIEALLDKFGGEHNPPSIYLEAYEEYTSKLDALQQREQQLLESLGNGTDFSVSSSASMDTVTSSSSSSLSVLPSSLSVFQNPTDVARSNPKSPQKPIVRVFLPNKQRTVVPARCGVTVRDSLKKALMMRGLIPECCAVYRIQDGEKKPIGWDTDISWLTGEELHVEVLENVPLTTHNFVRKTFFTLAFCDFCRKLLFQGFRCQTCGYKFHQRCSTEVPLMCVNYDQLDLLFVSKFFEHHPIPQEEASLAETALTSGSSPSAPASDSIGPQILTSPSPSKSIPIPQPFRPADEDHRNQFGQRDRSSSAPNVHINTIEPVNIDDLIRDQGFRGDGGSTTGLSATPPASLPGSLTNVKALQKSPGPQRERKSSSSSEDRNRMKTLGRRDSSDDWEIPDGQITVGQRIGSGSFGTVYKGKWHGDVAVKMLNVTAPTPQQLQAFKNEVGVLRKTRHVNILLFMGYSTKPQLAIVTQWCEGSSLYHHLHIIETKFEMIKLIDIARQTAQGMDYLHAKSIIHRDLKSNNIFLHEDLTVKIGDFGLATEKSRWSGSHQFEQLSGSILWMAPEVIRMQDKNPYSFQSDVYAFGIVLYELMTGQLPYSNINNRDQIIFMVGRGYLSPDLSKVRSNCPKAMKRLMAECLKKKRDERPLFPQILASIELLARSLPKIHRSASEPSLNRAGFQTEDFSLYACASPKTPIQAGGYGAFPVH
T5 sequence (P51812 68-327 limits assumed): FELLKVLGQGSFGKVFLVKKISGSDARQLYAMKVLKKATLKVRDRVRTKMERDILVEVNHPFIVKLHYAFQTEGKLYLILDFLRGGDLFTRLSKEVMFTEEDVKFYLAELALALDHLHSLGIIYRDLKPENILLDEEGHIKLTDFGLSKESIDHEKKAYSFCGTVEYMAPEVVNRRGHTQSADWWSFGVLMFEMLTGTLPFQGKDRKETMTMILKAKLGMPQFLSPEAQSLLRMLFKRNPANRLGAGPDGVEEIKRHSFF
T4 sequence (P04629 33-796): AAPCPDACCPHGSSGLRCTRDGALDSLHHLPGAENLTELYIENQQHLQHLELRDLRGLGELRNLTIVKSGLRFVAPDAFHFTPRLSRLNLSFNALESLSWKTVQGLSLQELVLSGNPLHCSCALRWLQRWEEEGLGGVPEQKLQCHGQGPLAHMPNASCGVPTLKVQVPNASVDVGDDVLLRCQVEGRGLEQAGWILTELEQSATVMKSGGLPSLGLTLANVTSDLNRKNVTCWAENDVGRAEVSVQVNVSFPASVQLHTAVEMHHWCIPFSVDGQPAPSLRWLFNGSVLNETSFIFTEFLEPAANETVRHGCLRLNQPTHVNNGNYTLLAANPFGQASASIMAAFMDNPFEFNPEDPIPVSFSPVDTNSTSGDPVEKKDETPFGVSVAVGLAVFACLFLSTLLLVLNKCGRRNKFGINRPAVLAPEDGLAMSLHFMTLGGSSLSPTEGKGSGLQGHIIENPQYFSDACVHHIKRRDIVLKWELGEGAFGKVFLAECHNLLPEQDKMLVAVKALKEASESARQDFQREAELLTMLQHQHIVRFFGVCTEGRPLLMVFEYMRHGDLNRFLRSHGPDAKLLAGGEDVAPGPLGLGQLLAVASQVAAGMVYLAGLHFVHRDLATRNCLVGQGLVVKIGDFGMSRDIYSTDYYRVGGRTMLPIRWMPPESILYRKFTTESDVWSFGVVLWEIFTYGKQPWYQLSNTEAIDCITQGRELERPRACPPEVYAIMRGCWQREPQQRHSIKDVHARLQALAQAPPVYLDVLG
T1 sequence (P49137 whole entry): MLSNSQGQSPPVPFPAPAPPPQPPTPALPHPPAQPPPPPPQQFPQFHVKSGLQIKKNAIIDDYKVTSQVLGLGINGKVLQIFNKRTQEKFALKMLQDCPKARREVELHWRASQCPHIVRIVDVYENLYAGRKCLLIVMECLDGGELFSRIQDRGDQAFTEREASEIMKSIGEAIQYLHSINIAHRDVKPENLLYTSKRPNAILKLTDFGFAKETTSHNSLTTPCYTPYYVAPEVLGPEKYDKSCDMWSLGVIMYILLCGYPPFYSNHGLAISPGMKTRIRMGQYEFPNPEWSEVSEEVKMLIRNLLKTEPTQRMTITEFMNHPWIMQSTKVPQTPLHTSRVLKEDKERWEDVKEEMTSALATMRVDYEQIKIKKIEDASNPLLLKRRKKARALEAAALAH
T3 sequence (P48730 whole entry): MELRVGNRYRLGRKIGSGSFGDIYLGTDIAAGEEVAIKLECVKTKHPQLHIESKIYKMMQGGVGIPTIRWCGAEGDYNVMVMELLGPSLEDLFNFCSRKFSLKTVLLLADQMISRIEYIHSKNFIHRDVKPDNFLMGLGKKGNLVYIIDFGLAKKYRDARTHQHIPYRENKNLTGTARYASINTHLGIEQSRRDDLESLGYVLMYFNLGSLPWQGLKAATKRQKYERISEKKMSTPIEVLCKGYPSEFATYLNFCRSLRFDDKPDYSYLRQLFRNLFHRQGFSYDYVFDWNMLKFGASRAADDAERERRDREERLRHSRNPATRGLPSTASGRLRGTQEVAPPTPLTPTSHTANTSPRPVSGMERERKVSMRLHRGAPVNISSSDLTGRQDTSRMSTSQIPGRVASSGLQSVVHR

| SMILES | RA @ 1000nM (MAPKAPK2) | RA @ 10000nM (MAPKAPK2) | RA @ 1000nM (AXL) | RA @ 10000nM (AXL) | RA @ 1000nM (CSNK1D) | RA @ 10000nM (CSNK1D) | RA @ 1000nM (TRKA) | RA @ 10000nM (TRKA) | RA @ 1000nM [1] | RA @ 10000nM [1] | RA @ 1000nM (IKKα) | RA @ 10000nM (IKKα) | RA @ 1000nM (SRPK3) | RA @ 10000nM (SRPK3) | RA @ 1000nM (BRAF(V600E)) | RA @ 10000nM (BRAF(V600E)) | RA @ 1000nM (SRC) | RA @ 10000nM (SRC) |
| --- | --- | --- | --- | --- | --- | --- | --- | --- | --- | --- | --- | --- | --- | --- | --- | --- | --- | --- |
| CC(C)Cn1ncc2cc(Cc3ccc(F)cc3F)c(C(=O)NCCN(C)C)cc21 [Compound 94, 5-(2,4-Difluorobenzyl)-N-(2-(dimethylamino)ethyl)-1-isobutyl-1H-indazole-6-carboxamide] | 100% | 84% | 97% | 89% | 86% | 79% | 98% | 94% | 86% | 65% | 82% | 87% | 77% | 100% | 100% | 100% | 100% | 94% |
| CN(C)CCNC(=O)c1cc2c(cnn2CC2CCCCC2)cc1Cc1ccc(F)cc1F [Compound 95, 1-(Cyclohexylmethyl)-5-(2,4-difluorobenzyl)-N-(2-(dimethylamino)ethyl)-1H-indazole-6-carboxamide] | 100% | 100% | 84% | 83% | 93% | 84% | 100% | 92% | 94% | 94% | 92% | 75% | 92% | 99% | 98% | 100% | 100% | 93% |
